From US20080070973A1, “Compounds having activity at the GlyT1 transporter” (priority 2006, published 2008)
Read-outs that look alike come from different tables or passages of the source. Blank lines part the entries; values can stand above or below the compound they belong to.

Tests used:
[1] = molecular target: T1, GlyT1 transporter (Homo sapiens, UniProt P48067); experiment: GlyT1 transporter [3H]-glycine uptake SPA assay in HEK293 cells; assay type: cell-based; conditions: for IC50: HEK293 cells expressing the Glycine (Type 1) transporter
T1 construct: expressed in transfected cells
T1 sequence (P48067 1-706): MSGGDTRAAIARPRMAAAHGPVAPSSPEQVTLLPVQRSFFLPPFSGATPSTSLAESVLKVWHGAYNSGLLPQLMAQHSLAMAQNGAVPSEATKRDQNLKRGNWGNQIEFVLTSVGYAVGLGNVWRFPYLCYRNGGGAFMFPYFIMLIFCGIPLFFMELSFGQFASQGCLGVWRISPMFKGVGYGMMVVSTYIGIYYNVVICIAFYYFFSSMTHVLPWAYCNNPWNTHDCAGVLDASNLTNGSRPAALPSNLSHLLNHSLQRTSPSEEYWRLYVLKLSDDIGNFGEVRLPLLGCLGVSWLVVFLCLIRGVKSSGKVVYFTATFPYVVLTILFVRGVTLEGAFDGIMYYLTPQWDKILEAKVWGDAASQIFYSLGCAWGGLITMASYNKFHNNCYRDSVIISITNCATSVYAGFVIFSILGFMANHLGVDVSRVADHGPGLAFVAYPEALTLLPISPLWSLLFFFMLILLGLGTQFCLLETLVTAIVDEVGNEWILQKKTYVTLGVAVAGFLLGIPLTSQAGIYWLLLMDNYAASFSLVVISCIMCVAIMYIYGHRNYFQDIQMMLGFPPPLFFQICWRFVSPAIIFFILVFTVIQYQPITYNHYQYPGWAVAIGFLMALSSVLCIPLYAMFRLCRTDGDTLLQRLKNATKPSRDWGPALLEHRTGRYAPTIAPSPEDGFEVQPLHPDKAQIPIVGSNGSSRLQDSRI
Procedure: The affinities of the compounds of this invention for the GlyT1 transporter were determined by the following assay:
HEK293 cells expressing the Glycine (Type 1) transporter were grown in cell culture medium [DMEM/NUT mix F12 containing 2 mM L-Glutamine, 0.8 mg/mL G418 and 10% heat inactivated fetal calf serum] at 37° C. and 5% CO2. Cells grown to 70-80% confluency in T175 flasks were harvested and frozen. For the assay, cells were defrosted and resuspended at 1.32×10^6 cells/mL in assay buffer [140 mM NaCl, 5.4 mM KCl, 1.8 mM CaCl2, 0.8 mM MgSO4, 20 mM HEPES, 5 mM glucose and 5 mM alanine, pH 7.4]. Compounds were serially diluted either 3-fold or 4-fold in DMSO from a top concentration of 2.5 mM with each compound giving a 11 data point dose-response. 100 nL of compound at each concentration was added to the assay plate. An equal volume of Leadseeker™ WGA SPA beads (12.5 mg/ml suspended in assay buffer) was added to the cell suspension (1.32×106) and 5 uL of the cell/bead suspension transferred to each well of a LV384-well white solid bottom plate (3300 cells/well) containing 100 nL of test compounds. Substrate (5 uL) was added to each well [1:100 dilution of [3H]-glycine stock in assay buffer containing 2.5 uM glycine). Final DMSO concentration was 1% v/v. Data was collected using a Perkin Elmer Viewlux™. pIC50 values were determined using ActivityBase™.

[2] = molecular target: T2, GlyT2 (Homo sapiens, UniProt Q9Y345); experiment: Affinity for GlyT1 compared with GlyT2 (statement, no method given); conditions: qualitative statement on the parent compound; no value given
T2 sequence (Q9Y345 1-797): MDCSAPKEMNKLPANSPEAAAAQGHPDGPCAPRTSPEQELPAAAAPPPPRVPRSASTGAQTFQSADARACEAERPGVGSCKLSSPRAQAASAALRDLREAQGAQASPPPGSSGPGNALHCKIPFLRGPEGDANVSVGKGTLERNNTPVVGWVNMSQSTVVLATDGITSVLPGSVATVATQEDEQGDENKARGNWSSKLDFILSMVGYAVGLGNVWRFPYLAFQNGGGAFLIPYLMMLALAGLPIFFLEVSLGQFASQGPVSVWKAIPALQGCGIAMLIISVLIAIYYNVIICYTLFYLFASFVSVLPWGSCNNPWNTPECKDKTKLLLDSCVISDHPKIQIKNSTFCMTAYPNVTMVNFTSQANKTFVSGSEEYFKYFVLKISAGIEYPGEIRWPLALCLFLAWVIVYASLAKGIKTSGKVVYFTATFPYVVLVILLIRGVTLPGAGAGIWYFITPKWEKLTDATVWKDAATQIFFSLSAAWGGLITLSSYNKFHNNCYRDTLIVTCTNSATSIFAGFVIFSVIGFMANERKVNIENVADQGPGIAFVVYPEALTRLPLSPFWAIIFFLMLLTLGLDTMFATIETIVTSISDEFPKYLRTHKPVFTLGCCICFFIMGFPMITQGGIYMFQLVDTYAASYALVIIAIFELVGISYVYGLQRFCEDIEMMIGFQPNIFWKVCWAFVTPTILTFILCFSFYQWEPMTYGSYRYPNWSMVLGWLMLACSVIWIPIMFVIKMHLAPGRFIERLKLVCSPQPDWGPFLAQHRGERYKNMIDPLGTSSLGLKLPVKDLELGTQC

SMILES: COc1cc(C(F)(F)F)cc(C(F)(F)F)c1C(=O)NC(c1ccccc1)C(C)(C)N1CCCC1 (stereo not shown) [2-(methyloxy)-N-[2-methyl-1-phenyl-2-(1-pyrrolidinyl)propyl]-4,6-bis(trifluoromethyl)benzamide]
- inhibition of the glycine transporter type GlyT1 (result in words) ([1]; qualitative statement on the parent compound, no value given): inhibitor of the glycine transporter type GlyT1
- affinity for GlyT1 relative to GlyT2 (selectivity, result in words) [2]: greater affinity for GlyT1 than for GlyT2

- IC50 ([1]; n=1, read-out: pIC50 at the GlyT1 transporter (converted)): 5.01 nM
SMILES: COc1cc(C(F)(F)F)cc(C(F)(F)F)c1C(=O)N[C@H](c1ccccc1)C(C)(C)N1CCCC1 [R-(−)-2-(Methyloxy)-N-[2-methyl-1-phenyl-2-(1-pyrrolidinyl)propyl]-4,6-bis(trifluoromethyl)benzamide 1,5-heminapadisylate]

- IC50 ([1]; n=5, read-out: average pIC50 at the GlyT1 transporter (converted)): 15.8 nM
SMILES: COc1cc(C(F)(F)F)cc(C(F)(F)F)c1C(=O)N[C@H](c1ccccc1)C(C)(C)N1CCCC1 [R-(−)-2-(Methyloxy)-N-[2-methyl-1-phenyl-2-(1-pyrrolidinyl)propyl]-4,6-bis(trifluoromethyl)benzamide monosuccinate]
